Patent US8431563B2 (priority 2010, dated 2013)
Read-outs that look alike come from different tables or passages of the source.

Columns and labels:
[1] = target: T1, interaction between glucokinase (GK) and glucokinase regulatory protein (GKRP) (Homo sapiens, UniProt Q14397); experiment: biochemical; format: binding
T1 sequence (Q14397 1-625): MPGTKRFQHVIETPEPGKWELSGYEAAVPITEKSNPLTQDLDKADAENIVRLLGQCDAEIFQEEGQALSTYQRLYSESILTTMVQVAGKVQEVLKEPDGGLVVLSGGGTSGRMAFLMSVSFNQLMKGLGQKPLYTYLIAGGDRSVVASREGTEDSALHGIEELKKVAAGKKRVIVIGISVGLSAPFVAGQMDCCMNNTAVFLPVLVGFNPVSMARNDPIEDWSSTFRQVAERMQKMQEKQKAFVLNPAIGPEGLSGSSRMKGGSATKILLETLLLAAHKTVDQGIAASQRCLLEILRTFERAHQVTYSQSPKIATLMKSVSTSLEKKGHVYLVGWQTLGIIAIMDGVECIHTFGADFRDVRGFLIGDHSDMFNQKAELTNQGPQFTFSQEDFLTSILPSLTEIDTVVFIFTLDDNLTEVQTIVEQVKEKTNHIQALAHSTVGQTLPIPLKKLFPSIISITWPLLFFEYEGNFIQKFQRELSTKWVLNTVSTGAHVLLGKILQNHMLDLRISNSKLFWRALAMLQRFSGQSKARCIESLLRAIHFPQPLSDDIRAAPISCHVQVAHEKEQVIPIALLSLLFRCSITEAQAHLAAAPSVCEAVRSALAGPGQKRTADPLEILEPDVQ
Method in brief: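 Avi-tagged human GKRP preincubated with compound for 20 min at room temperature, then 6 nM GK-fluorescein (concentration of added solution) introduced and incubated 2 h in the dark. Buffer: 20 mM Tris pH 7.5, 0.05% BSA, 1 mM DTT, 1 μM sorbitol-6-phosphate. Plate read on a fluorescence reader.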

[2] = target: T2, GKRP (Glucokinase Regulatory Protein) with human His-hepatic GK (Homo sapiens, UniProt Q14397); experiment: biochemical
T2 sequence (Q14397 1-625): T1 sequence (Q14397 1-625)
Method in brief: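 Human His-tagged hepatic GK (30 nM in the 5× working stock) in 50 mM Tris pH 7.5, 4 mM MgCl2, 6% DMSO with DTT, BSA and Brij-35. Enzyme was added after a 30 min step and reacted 30 min at room temperature. The reaction was stopped with acetonitrile and 13C-glucose-6-phosphate formed from 13C-glucose was quantified by LC MS/MS.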

[3] = avi-tagged GKRP, GK-fluorescein, AlphaScreen beads, read-out: GK-GKRP IC50 (Binding)
[4] = 13C-glucose-6-phosphate formation, 280 nM GKRP (10×), 30 nM GK (5×), read-out: GK-GKRP EC50 (LC MS/MS-2)
[5] = GK-GKRP EC50 (LC MS/MS-2), 13C-glucose-6-phosphate formation, 280 nM GKRP (10×), 30 nM GK (5×)

CC(O)(c1ccc(N2CCN(S(=O)(=O)c3cccs3)C[C@@H]2CN2CCOC[C@H]2CO)cc1)C(F)(F)F (single isomer, unassigned) [Example 110 Peak #2]
IC50 ([1]; read-out: GK-GKRP IC50 (Binding)): 79 nM
EC50 ([2]; read-out: GK-GKRP EC50 (LC MS/MS-2)): 132 nM

CC(C)CS(=O)(=O)N(C[C@H]1CN(S(=O)(=O)c2cccs2)CCN1c1ccc(C(C)(O)C(F)(F)F)cc1)c1ccccc1 (mixture of isomers) [Example 211, 2-methyl-N-phenyl-N-(((2R)-4-(2-thiophenylsulfonyl)-1-(4-(2,2,2-trifluoro-1-hydroxy-1-methylethyl)phenyl)-2-piperazinyl)methyl)-1-propanesulfonamide]
IC50 [1, 3]: 6 nM
EC50 [2, 4]: 20 nM

CC(O)(c1ccc(N2CCN(S(=O)(=O)c3cccs3)C[C@@H]2CNS(=O)(=O)c2ccccc2)cc1)C(F)(F)F (mixture of isomers) [Example 193, N-(((2S)-4-(2-thiophenylsulfonyl)-1-(4-(2,2,2-trifluoro-1-hydroxy-1-methylethyl)phenyl)-2-piperazinyl)methyl)benzenesulfonamide]
IC50 [1, 3]: 284 nM
EC50 [2, 5]: 374 nM

C[C@H]1COCCN1C[C@H]1CN(S(=O)(=O)c2ccc(N)nc2)CCN1c1ccc(C(C)(O)C(F)(F)F)cc1 (mixture of isomers) [Example 125, 2-(4-((2S)-4-((6-amino-3-pyridinyl)sulfonyl)-2-(((3S)-3-methyl-4-morpholinyl)methyl)-1-piperazinyl)phenyl)-1,1,1-trifluoro-2-propanol]
IC50 [1, 3]: 3 nM
EC50 [2, 4]: 20 nM

CC(C)CN(C[C@H]1CN(S(=O)(=O)c2cccs2)CCN1c1ccc(C(C)(O)C(F)(F)F)cc1)S(=O)(=O)CC(F)(F)F (mixture of isomers) [Example 214, 2,2,2-trifluoro-N-(2-methylpropyl)-N-(((2S)-4-(2-thiophenylsulfonyl)-1-(4-(2,2,2-trifluoro-1-hydroxy-1-methylethyl)phenyl)-2-piperazinyl)methyl) ethanesulfonamide]
IC50 [1, 3]: 238 nM
EC50 [2, 4]: 247 nM

C[C@H]1CN(S(=O)(=O)c2ccccc2N)CCN1c1ccc(C(O)(C(F)(F)F)C(F)(F)F)cc1 [Example 168, 2-(4-((2S)-4-((2-aminophenyl)sulfonyl)-2-methyl-1-piperazinyl)phenyl)-1,1,1,3,3,3-hexafluoro-2-propanol]
IC50 [1, 3]: 660 nM
EC50 [2, 4]: 533 nM

CS(=O)(=O)N(C[C@H]1CN(S(=O)(=O)c2ccc(N)s2)CCN1c1ncc(C(O)(C(F)(F)F)C(F)(F)F)cn1)c1ccccc1 [Example 233, N-(((2R)-4-((5-amino-2-thiophenyl)sulfonyl)-1-(5-(2,2,2-trifluoro-1-hydroxy-1-(trifluoromethyl)ethyl)-2-pyrimidinyl)-2-piperazinyl)methyl)-N-phenylmethanesulfonamide]
IC50 [1, 3]: < 1 nM
EC50 [2, 4]: 8 nM

CC(C)C1C(=O)NCCN1C[C@H]1CN(S(=O)(=O)c2ccc(N)s2)CCN1c1ncc(C(O)(C(F)(F)F)C(F)(F)F)cn1 (single isomer, unassigned) [Example 184 Peak #1]
IC50 [1, 3]: 1 nM
EC50 [2, 4]: 12 nM

CC(F)(c1ccc(N2CCN(S(=O)(=O)c3cccs3)C[C@@H]2CN2C3CCCC2CC(F)C3)cc1)C(F)(F)F (mixture of isomers) [Example 142, 3-fluoro-9-(((2S)-1-(4-(1,2,2,2-tetrafluoro-1-methylethyl)phenyl)-4-(2-thiophenylsulfonyl)-2-piperazinyl)methyl)-9-azabicyclo[3.3.1]nonane (exo)]
IC50 [1, 3]: 47 nM
EC50 [2, 4]: 189 nM

CC(O)(c1ccc(N2CCN(S(=O)(=O)c3cccs3)C[C@@H]2CN2C3COCC2C(O)C3)cc1)C(F)(F)F (single isomer, unassigned) [Example 78 Peak #3]
IC50 [1, 3]: 33 nM
EC50 [2, 4]: 36 nM

CC(O)(c1ccc(N2CCN(S(=O)(=O)c3cccs3)C[C@@H]2CN2C3COCC2C(O)C3)cc1)C(F)(F)F (single isomer, unassigned; peak #1) [Example 77 Peak #1]
IC50 [1, 3]: 13 nM
EC50 [2, 4]: 38 nM

CC(O)(c1ccc(N2CCN(S(=O)(=O)c3cccs3)C[C@@H]2C[S+]([O-])c2ccc(F)cc2)cc1)C(F)(F)F (single isomer, unassigned) [Example 191 Peak#3]
IC50 [1, 3]: 259 nM
EC50 [2, 4]: 262 nM

O=S(=O)(c1cccs1)N1CCN(c2ncc(C(O)(C(F)(F)F)C(F)(F)F)cn2)[C@@H](CN2C3COCC2C(O)C3)C1 (stereo partly drawn) [Example 79, 8-(((2S)-4-(2-thiophenylsulfonyl)-1-(5-(2,2,2-trifluoro-1-hydroxy-1-(trifluoromethyl)ethyl)-2-pyrimidinyl)-2-piperazinyl)methyl)-3-oxa-8-azabicyclo[3.2.1]octan-6-ol]
IC50 [1, 3]: 39 nM
EC50 [2, 4]: 58 nM

Cn1cnc(COC[C@H]2CN(S(=O)(=O)c3cccs3)CCN2c2ccc(C(C)(O)C(F)(F)F)cc2)c1 (single isomer, unassigned) [Example 119 Peak #2]
IC50 [1, 3]: 979 nM
EC50 [2, 4]: 206 nM

CC(O)(c1ccc(N2CCN(S(=O)(=O)c3cccs3)C[C@@H]2CN2CCOCC2c2ccc(F)cc2)cc1)C(F)(F)F (single isomer, unassigned) [Example 115 Peak #1]
IC50 [1, 3]: 589 nM
EC50 [2, 4]: 308 nM

CC(O)(c1ccc(N2CCN(S(=O)(=O)c3cccs3)C[C@@H]2CN2[C@@H]3COC[C@H]2CC(=O)C3)cc1)C(F)(F)F (single isomer, unassigned) [Example 106 Peak#1]
IC50 [1, 3]: 52 nM
EC50 [2, 4]: 88 nM

CC(O)(c1ccc(N2CCN(S(=O)(=O)c3cccs3)C[C@@H]2CN2CCC[C@H](O)C2)cc1)C(F)(F)F (mixture of isomers) [Example 145, (3S)-1-(((2S)-4-(2-thiophenylsulfonyl)-1-(4-(2,2,2-trifluoro-1-hydroxy-1-methylethyl)phenyl)-2-piperazinyl)methyl)-3-piperidinol]
IC50 [1, 3]: 628 nM
EC50 [2, 4]: 880 nM

CC(O)(c1ccc(N2CCN(S(=O)(=O)c3cccs3)C[C@@H]2CN(C2COC2)C2COC2)cc1)C(F)(F)F (mixture of isomers) [Example 205, 2-(4-((2S)-2-((di-3-oxetanylamino)methyl)-4-(2-thiophenylsulfonyl)-1-piperazinyl)phenyl)-1,1,1-trifluoro-2-propanol]
IC50 [1, 3]: 435 nM
EC50 [2, 4]: 480 nM

Nc1ccc(S(=O)(=O)N2CCN(c3ncc(C(O)(C(F)(F)F)C(F)(F)F)cn3)[C@@H](CN3C4COCC3CC(=O)C4)C2)s1 [Example 98 nonan-7-one, 9-(((2S)-4-((5-amino-2-thiophenyl)sulfonyl)-1-(5-(2,2,2-trifluoro-1-hydroxy-1-(trifluoromethyl)ethyl)-2-pyrimidinyl)-2-piperazinyl)methyl)-3-oxa-9-azabicyclo[3.3.1]nonan-7-one]
IC50 ([1]; GK-GKRP IC50 (Binding), avi-tagged GKRP, GK-fluorescein, AlphaScreen beads): 16 nM
EC50 [2, 5]: 40 nM

C[C@H]1CN(S(=O)(=O)c2ccc(N)s2)CCN1c1ncc(C(O)(C(F)(F)F)C(F)(F)F)cn1 [Example 89, 2-(2-((2S)-4-((5-amino-2-thiophenyl)sulfonyl)-2-methyl-1-piperazinyl)-5-pyrimidinyl)-1,1,1,3,3,3-hexafluoro-2-propanol]
IC50 [1, 3]: 252 nM
EC50 [2, 4]: 161 nM

C[C@H]1CN(S(=O)(=O)c2nccs2)CCN1c1ncc(C(O)(C(F)(F)F)C(F)(F)F)cn1 [Example 146, 1,1,1,3,3,3-hexafluoro-2-(2-((2S)-2-methyl-4-(1,3-thiazol-2-ylsulfonyl)-1-piperazinyl)-5-pyrimidinyl)-2-propanol]
IC50 [1, 3]: 630 nM
EC50 [2, 4]: 867 nM

2-(4-((2S)-4-((5-amino-2-thiophenyl)sulfonyl)-2-(((3S)-3-methyl-4-morpholinyl)methyl)-1-piperazinyl)phenyl)-1,1,1,3,3,3-hexafluoro-2-propanol [Example 225]
IC50 [1, 3]: 7 nM
EC50 [2, 4]: 19 nM

CC(O)(c1ccc(N2CCN(S(=O)(=O)c3cccs3)C[C@@H]2CN2CC3CCOC3C2)cc1)C(F)(F)F (stereo partly drawn) [Example 122, 1,1,1-trifluoro-2-(4-((2S)-2-(cis-hexahydro-5H-furo[2,3-c]pyrrol-5-ylmethyl)-4-(2-thiophenylsulfonyl)-1-piperazinyl)phenyl)-2-propanol]
IC50 ([1]; GK-GKRP IC50 (Binding)): 555 nM
EC50 ([2]; GK-GKRP EC50 (LC MS/MS-2)): 313 nM
